Experimental data from patent publication US20230287027A1, “ADJUVANT WITH TLR4 AGONIST ACTIVITY” (Sumitomo Pharma Co., Ltd, priority 2020, published 2023).

Legend:
mouse TLR4 = target: T1, mouse TLR4 (Mus musculus, UniProt Q9JHF9+Q9QUK6); assay: Mouse TLR4 reporter gene assay (Test 2); format: cell-based; settings: HEK-Blue mTLR4 cell line, SEAP reporter, 37° C. 16-20 hours, 0.1% DMSO; concentration giving half of maximal SEAP level induced with LPS
T1 construct: host or cells: HEK-Blue mTLR4 cell line
T1 sequence (Q9QUK6 26-835): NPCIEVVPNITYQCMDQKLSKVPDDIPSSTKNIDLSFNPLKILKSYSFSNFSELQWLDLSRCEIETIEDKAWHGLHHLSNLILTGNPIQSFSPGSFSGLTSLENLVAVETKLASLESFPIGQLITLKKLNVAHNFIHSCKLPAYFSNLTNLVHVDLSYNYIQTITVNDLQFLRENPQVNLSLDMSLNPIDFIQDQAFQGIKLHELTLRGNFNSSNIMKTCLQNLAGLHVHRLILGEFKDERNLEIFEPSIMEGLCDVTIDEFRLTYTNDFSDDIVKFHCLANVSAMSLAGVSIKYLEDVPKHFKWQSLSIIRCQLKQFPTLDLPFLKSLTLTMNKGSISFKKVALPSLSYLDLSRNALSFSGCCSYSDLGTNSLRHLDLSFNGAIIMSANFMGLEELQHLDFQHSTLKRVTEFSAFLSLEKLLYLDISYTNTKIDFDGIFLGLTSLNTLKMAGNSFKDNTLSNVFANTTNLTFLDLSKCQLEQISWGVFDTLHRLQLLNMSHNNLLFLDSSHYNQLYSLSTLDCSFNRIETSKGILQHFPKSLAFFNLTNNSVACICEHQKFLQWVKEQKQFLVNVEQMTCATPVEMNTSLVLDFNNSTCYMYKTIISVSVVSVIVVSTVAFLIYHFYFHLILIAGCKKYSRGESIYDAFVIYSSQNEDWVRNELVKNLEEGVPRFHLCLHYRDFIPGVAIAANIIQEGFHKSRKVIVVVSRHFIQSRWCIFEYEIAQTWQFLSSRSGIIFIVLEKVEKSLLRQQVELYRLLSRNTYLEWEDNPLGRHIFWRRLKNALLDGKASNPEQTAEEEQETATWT
T1 sequence (Q9JHF9 19-160): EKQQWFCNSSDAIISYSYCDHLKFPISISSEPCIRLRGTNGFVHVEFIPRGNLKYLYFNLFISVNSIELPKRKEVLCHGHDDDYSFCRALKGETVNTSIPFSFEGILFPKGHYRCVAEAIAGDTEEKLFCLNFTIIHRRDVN
From the text: Mouse TLR4 Reporter Gene Assay
HEK-Blue™ mTLR4 cell line (Invivogen) is a stably co-transfected cell line which expresses mouse TLR4, MD2, CD14 and secretory SEAP reporter gene under the transcriptional regulation of an NF-κB response element. The TLR4 expression of the cell line has been already tested by RT-PCR, flow cytometry. Transfectants with stable expression were selected using the antibiotic HEK-Blue™ Selection. TLR signaling leads to the translocation of NF-κB and the activation of the promoter results in expression of the SEAP gene. TLR4-specific activation was assessed by determining the level of SEAP produced following incubation of the cells at 37° C. for 16-20 hours with each compound prepared in Examples and Reference examples in the presence of 0.1% (v/v) DMSO. The mouse TLR4 activity for the present compound was assessed by mouse TLR4 reporter gene assay, and the concentration of the compound concentration which produced half of the maximal level of SEAP induced with LPS was determined as EC50.

spleen cell of the mouse = assay: Test 4: T cell populations in spleen cells of immunized mice by flow cytometry; format: in vivo; settings: intramuscular with OVA, liposome formulation, compared with the negative control group
Description: The equal mixture prepared in Test 3 of ovalbumin (OVA) (2 mg/mL) and the formulation prepared in Example 6, Example 7, or Reference example 16 (containing 0.2 or 2 mg/mL the compound of Example 1, Example 2, or Reference example 9) was administered to a mouse (100 μL/mouse). The spleen cell of the mouse was prepared, OVA and Brefeldin A (eBioscience) were added the cell, and the cell was cultured overnight. The collected cell was stained with APC-labeled antimouse CD3e antibody (Invitrogen), PerCP-labeled antimouse CD4 antibody (BioLegend), and Fixable Viability Dye eFluor™ 520 (invitorgen), and fixed with Fixation/Permeabilization buffer (Invitrogen). The cell was treated with Permeabilization buffer (Invitrogen), and then stained with antibody cocktail BV421-labeled anti-IFN-γ antibody (BioLegend), PE-Cy7-labeled anti-IL-2 antibody (eBioscience), and PE-labeled TNF-α (BioLegend). The data were taken and analyzed with FACS Cant II (BD Biosciences) and FLOWJO software (TreeStar).
Separately, the spleen cell was stained with V450-labled antimouse CD3e antibody (invitrogen), Alexa Fluor™ 647-labeled antimouse CD8 antibody (MBL), PE-labeled H-2Kb OVA Tetramer-SIINFEKL (MBL), and Fixable Viability dye eFluor 520 (invitrogen). The data were taken and analyzed with FACS Cant II (BD Biosciences) and FLOWJO software (TreeStar).
Further separately, the spleen cell was stained with V450-labeled antimouse CD3e antibody (invitrogen), Alexa Fluor™ 647-labeled antimouse CD8 antibody (MBL), PE-Cy7-labeled antimouse CD44 antibody (Invitrogen), PerCP-Cy5.5-labeled antimouse CD62L antibody (Invitrogen), and Fixable Viability dye eFluor 520 (Invitrogen). The data were taken and analyzed with FACS Cant II (BD Biosciences) and FLOWJO software (TreeStar).

SMILES | EC50 (mouse TLR4) | percentage of CD8-positive effector memory T-lymphocyte (spleen cell of the mouse) | percentage of MHC-restricted OVA-specific CD8-positive T-lymphocyte (OVA tetramer-positive CD8T cell) (spleen cell of the mouse) | percentage of OVA-specific type 1 helper T-cell (spleen cell of the mouse)
CCCCCCCCCCC[C@H](CC(=O)NC1C(OC[C@@H](NC(=O)C[C@@H](CCCCCCCCCCC)OC(=O)CCCCCCCCC)C(=O)O)OC(CO)C(O)C1OC(=O)C[C@@H](CCCCCCCCCCC)OC(=O)CCCCCCCCc1ccccc1)OC(=O)CCCCCCCCC (stereo partly drawn) [Example 1, (2R)-2-{[(3R)-3-(Decanoyloxy)tetradecanoyl]amino}-3-{[3-{[(3R)-3-(decanoyloxy)tetradecanoyl]amino}-5-hydroxy-6-(hydroxymethyl)-4-({(3R)-3-[(9-phenylnonanoyl)oxy]tetradecanoyl}oxy)oxan-2-yl]oxy}propanoic acid] | 14.3 nM | significantly increased | significantly increased | significantly increased
CCCCCCCCCCC[C@H](CC(=O)NC1C(OC[C@H](NC(=O)C[C@@H](CCCCCCCCCCC)OC(=O)CCCCCCCCC)C(=O)O)OC(CO)C(O)C1OC(=O)C[C@@H](CCCCCCCCCCC)OC(=O)CCCCCCCCc1ccccc1)OC(=O)CCCCCCCCC (stereo partly drawn) [Example 2, (2S)-2-{[(3R)-3-(decanoyloxy)tetradecanoyl]amino}-3-{[3-{[(3R)-3-(decanoyloxy)tetradecanoyl]amino}-5-hydroxy-6-(hydroxymethyl)-4-({(3R)-3-[(9-phenylnonanoyl)oxy]tetradecanoyl}oxy)oxan-2-yl]oxy}propanoic acid] | 14.3 nM | significantly increased | significantly increased | significantly increased
CCCCCCCCCCC[C@H](CC(=O)NC1C(OC[C@@H](NC(=O)C[C@@H](CCCCCCCCCCC)OC(=O)CCCCCCCCC)C(=O)O)OC(CO)C(OP(=O)(O)O)C1OC(=O)C[C@@H](CCCCCCCCCCC)OC(=O)CCCCCCCCc1ccccc1)OC(=O)CCCCCCCCC (stereo partly drawn) [Reference example 9, (2R)-2-{[(3R)-3-(Decanoyloxy)tetradecanoyl]amino}-3-{[3-{[(3R)-3-(decanoyloxy)tetradecanoyl]amino}-6-(hydroxymethyl)-4-({(3R)-3-[(9-phenylnonanoyl)oxy]tetradecanoyl}oxy)-5-(phosphonooxy)oxan-2-yl]oxy}propanoic acid, reference compound] | 28.4 nM | significantly increased | significantly increased | significantly increased
